Measurements taken from PubChem BioAssay AID1963854 (Molecular Pharmacology Branch, DTP, NCI, 2024).

Test system: 186277-243-T-J2-PDC complex spheroid viability
Assay: Anticancer human tumor 186277-243-T-J2-PDC patient-derived colon adenocarcinoma cell line growth inhibition [POLQ]
Details: for IC50: curve of first compound; for viability, T/C: stronger effect = lower value
How it was run: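 PDC + HUVEC + MSC complex spheroids; POLQ inhibitors ± partner drugs; top conc. at/near clinical Cmax, else 10 microM (SN-38 1 microM), half-log dilutions; 37 degrees C, 5% CO2.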
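Further: spheroids exposed to compounds for seven days.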
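Wherever viability, T/C is given: 100% = DMSO vehicle control viability.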

In the case of `CCCS(=O)(=O)Nc1ccc(F)c(C(=O)c2c[nH]c3ncc(-c4ccc(Cl)cc4)cc23)c1F` + Cc1cccc(N(C)C(=O)C2C(O)CCN2c2nc(C)cc(C(F)(F)F)c2C#N)c1, the IC50 (second compound 0.0316 µM) is reported as > 10 µM, the IC50 (second compound 0.1 µM) is reported as > 10 µM and the IC50 (second compound 0.316 µM) is reported as > 10 µM. For the same compound, the IC50 (second compound 1 µM) was > 10 µM, the IC50 (second compound 3.16 µM) was > 10 µM and the IC50 (second compound 10 µM) was > 10 µM. It also gave a viability, T/C (second compound 0.0316 µM, first compound 0.0316 µM) of 83%, a viability, T/C (second compound 0.0316 µM, first compound 0.1 µM) of 101% and a viability, T/C (second compound 0.0316 µM, first compound 0.316 µM) of 80.6%. It also gave a viability, T/C (second compound 0.0316 µM, first compound 1 µM) of 95.6%, a viability, T/C (second compound 0.0316 µM, first compound 3.16 µM) of 82.8% and a viability, T/C (second compound 0.0316 µM, first compound 10 µM) of 58%. For the same compound, the viability, T/C (second compound 0.1 µM, first compound 0.0316 µM) was 87.7%, the viability, T/C (second compound 0.1 µM, first compound 0.1 µM) was 91.2% and the viability, T/C (second compound 0.1 µM, first compound 0.316 µM) was 79.3%. The viability, T/C (second compound 0.1 µM, first compound 1 µM) was 92.4%, the viability, T/C (second compound 0.1 µM, first compound 3.16 µM) was 76.8% and the viability, T/C (second compound 0.1 µM, first compound 10 µM) was 56.8%. The viability, T/C (second compound 0.316 µM, first compound 0.0316 µM) was 85.9%, the viability, T/C (second compound 0.316 µM, first compound 0.1 µM) was 108% and the viability, T/C (second compound 0.316 µM, first compound 0.316 µM) was 87%. For the same compound, the viability, T/C (second compound 0.316 µM, first compound 1 µM) was 88.2%, the viability, T/C (second compound 0.316 µM, first compound 3.16 µM) was 77.8% and the viability, T/C (second compound 0.316 µM, first compound 10 µM) was 52.8%. For the same compound, the viability, T/C (second compound 1 µM, first compound 0.0316 µM) was 106%, the viability, T/C (second compound 1 µM, first compound 0.1 µM) was 89.3% and the viability, T/C (second compound 1 µM, first compound 0.316 µM) was 99.9%. For the same compound, the viability, T/C (second compound 1 µM, first compound 1 µM) was 79.7%, the viability, T/C (second compound 1 µM, first compound 3.16 µM) was 89.7% and the viability, T/C (second compound 1 µM, first compound 10 µM) was 51%. The viability, T/C (second compound 3.16 µM, first compound 0.0316 µM) was 115%, the viability, T/C (second compound 3.16 µM, first compound 0.1 µM) was 88% and the viability, T/C (second compound 3.16 µM, first compound 0.316 µM) was 83.5%. For the same compound, the viability, T/C (second compound 3.16 µM, first compound 1 µM) was 83.4%, the viability, T/C (second compound 3.16 µM, first compound 3.16 µM) was 77.3% and the viability, T/C (second compound 3.16 µM, first compound 10 µM) was 56.9%. The viability, T/C (second compound 10 µM, first compound 0.0316 µM) was 93.4%, the viability, T/C (second compound 10 µM, first compound 0.1 µM) was 86.9% and the viability, T/C (second compound 10 µM, first compound 0.316 µM) was 93.2%. It also gave a viability, T/C (second compound 10 µM, first compound 1 µM) of 83.9%, a viability, T/C (second compound 10 µM, first compound 3.16 µM) of 88.1% and a viability, T/C (second compound 10 µM, first compound 10 µM) of 56.1%.
